Here are results for 4 compounds from publication PMC3098952 (Bioorganic & medicinal chemistry letters, 2011).

For one experiment, the target named is EcMetAP. Particulars: read-out: Reported affinity of metal for EcMetAP; ref [30], [31]; cited from earlier work.
The next experiment has as its target AbMetAPx (Acinetobacter baumannii, UniProt A0A7U4DGZ4). The experiment is described as follows: Activation of and metal binding to AbMetAPx by divalent metal ions. The class given is biochemical, Acinetobacter baumannii ATCC 17978. Particulars: Met-AMC fluorescence assay, enzyme 1 µM.
Another experiment has as its target AbMetAPy (Acinetobacter baumannii, UniProt V5VCW7). The experiment is described as follows: Activation of and metal binding to AbMetAPy by divalent metal ions. The class given is biochemical, Acinetobacter baumannii ATCC 17978. The note with it: Met-AMC fluorescence assay, enzyme 1 µM.

For `[Mn+2]` [Mn(II)], the Kd at EcMetAP was 6000 nM.
Regarding `[Co+2]` [Co(II)], at EcMetAP, the Kd was 300 nM.
For the compound `[Zn+2]` [Zn (II)], the “Activation of AbMetAPx by metal ion” value at AbMetAPx is recorded as “no activation”. Also, the “Activation of AbMetAPy by metal ion” value on AbMetAPy is listed as “no activation”.
As for `[Fe+2]` [Fe(II)], the Kd at EcMetAP is 200 nM.
